In ChEMBL document CHEMBL4507299, “Data for DCP probe PF-04554878” (2021):

Legend:
[1] = biological target: Tyrosine-protein kinase JAK2 (Homo sapiens) (UniProt O60674)
[2] = biological target: Myosin light chain kinase, smooth muscle (Homo sapiens) (UniProt Q15746)
[3] = biological target: MAP kinase-interacting serine/threonine-protein kinase 1 (Homo sapiens) (UniProt Q9BUB5)
[4] = biological target: Mitogen-activated protein kinase kinase kinase 1 (Homo sapiens) (UniProt Q13233)
[5] = biological target: Phosphatidylinositol 3-kinase C2 domain-containing subunit gamma (Homo sapiens) (UniProt O75747)
[6] = biological target: Serine/threonine-protein kinase pim-1 (Homo sapiens) (UniProt P11309)
Sequence of Serine/threonine-protein kinase pim-1 (Homo sapiens) (P11309 whole entry, looked up): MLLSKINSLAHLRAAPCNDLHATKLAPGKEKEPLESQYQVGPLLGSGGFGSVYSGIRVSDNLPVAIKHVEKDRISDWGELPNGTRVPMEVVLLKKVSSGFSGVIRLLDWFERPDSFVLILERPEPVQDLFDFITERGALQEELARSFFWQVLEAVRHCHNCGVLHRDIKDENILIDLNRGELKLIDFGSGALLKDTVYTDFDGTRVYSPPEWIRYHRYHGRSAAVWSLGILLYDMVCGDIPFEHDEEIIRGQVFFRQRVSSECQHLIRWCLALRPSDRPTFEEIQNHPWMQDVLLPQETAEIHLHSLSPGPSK

[7] = biological target: T1, Tyrosine-protein kinase JAK3 (Homo sapiens) (UniProt P52333)
T1 sequence (whole entry): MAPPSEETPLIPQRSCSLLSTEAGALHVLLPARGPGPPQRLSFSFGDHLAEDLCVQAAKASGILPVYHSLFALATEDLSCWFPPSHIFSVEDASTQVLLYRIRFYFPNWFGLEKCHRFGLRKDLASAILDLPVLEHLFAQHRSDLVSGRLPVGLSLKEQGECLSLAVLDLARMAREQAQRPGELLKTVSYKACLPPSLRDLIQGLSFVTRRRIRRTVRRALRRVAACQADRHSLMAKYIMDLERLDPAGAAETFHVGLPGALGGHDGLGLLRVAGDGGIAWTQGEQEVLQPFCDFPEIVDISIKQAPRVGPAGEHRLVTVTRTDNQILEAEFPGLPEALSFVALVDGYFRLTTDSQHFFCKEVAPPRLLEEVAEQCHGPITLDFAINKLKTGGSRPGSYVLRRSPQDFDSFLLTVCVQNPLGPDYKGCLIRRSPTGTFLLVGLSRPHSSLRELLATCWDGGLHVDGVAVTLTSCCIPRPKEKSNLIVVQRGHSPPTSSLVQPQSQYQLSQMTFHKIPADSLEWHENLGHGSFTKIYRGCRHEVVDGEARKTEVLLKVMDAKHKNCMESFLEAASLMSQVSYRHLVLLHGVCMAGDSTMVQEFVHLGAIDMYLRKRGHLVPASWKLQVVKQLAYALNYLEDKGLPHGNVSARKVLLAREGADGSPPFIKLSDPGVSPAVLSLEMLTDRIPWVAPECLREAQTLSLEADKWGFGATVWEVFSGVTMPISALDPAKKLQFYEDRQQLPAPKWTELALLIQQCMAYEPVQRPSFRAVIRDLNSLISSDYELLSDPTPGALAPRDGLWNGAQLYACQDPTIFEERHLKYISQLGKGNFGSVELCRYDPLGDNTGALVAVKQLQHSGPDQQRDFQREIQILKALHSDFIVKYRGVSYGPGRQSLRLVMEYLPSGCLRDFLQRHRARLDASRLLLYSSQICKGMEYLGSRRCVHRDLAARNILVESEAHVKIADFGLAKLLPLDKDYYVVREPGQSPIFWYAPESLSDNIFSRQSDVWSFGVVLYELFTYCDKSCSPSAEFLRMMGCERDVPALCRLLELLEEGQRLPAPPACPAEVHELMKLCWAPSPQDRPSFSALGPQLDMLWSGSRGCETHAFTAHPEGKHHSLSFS

[8] = biological target: Serine/threonine-protein kinase N2 (Homo sapiens) (UniProt Q16513)
[9] = biological target: Mitotic checkpoint serine/threonine-protein kinase BUB1 (Homo sapiens) (UniProt O43683)
[10] = biological target: Non-receptor tyrosine-protein kinase TYK2 (Homo sapiens) (UniProt P29597)
[11] = biological target: Serine/threonine-protein kinase D3 (Homo sapiens) (UniProt O94806)
[12] = biological target: Myosin light chain kinase (Homo sapiens) (UniProt Q32MK0)
Sequence of Myosin light chain kinase (Homo sapiens) (Q32MK0 whole entry): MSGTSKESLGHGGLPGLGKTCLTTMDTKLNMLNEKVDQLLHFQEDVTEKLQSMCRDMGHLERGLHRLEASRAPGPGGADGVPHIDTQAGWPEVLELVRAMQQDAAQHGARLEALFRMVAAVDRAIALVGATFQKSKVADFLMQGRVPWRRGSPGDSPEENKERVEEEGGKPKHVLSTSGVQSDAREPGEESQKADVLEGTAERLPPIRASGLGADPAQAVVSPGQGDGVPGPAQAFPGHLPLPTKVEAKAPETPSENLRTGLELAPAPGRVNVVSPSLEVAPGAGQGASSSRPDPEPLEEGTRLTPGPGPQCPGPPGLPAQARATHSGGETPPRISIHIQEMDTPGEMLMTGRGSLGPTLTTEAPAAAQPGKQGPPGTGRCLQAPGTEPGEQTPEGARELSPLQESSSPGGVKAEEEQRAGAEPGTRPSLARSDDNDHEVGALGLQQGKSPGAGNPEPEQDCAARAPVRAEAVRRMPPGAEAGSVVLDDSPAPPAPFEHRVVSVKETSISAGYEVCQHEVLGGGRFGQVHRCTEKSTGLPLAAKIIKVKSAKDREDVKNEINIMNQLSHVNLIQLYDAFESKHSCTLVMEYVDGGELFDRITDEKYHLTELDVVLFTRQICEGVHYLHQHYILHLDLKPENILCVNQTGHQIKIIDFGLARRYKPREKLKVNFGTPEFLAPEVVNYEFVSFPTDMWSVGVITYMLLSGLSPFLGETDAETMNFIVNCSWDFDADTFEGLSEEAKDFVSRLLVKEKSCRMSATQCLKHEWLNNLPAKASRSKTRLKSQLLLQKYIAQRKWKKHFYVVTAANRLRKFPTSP

[13] = biological target: Cyclin-dependent kinase 2 (Homo sapiens) (UniProt P24941)
[14] = biological target: Cyclin-dependent kinase 2 homolog (Plasmodium falciparum (isolate 3D7)) (UniProt P61075)
Sequence of Cyclin-dependent kinase 2 homolog (Plasmodium falciparum (isolate 3D7)) (P61075 whole entry): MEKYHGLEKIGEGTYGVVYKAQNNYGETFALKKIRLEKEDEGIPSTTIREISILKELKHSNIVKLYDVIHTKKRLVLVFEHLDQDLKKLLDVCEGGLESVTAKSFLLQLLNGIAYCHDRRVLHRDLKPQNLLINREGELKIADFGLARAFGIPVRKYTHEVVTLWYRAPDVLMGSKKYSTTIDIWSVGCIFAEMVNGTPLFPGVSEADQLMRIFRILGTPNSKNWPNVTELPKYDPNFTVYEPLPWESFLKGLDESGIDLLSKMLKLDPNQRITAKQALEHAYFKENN

[15] = biological target: Activin receptor type-1-like (Homo sapiens) (UniProt P37023)
Sequence of Activin receptor type-1-like (Homo sapiens) (P37023 whole entry): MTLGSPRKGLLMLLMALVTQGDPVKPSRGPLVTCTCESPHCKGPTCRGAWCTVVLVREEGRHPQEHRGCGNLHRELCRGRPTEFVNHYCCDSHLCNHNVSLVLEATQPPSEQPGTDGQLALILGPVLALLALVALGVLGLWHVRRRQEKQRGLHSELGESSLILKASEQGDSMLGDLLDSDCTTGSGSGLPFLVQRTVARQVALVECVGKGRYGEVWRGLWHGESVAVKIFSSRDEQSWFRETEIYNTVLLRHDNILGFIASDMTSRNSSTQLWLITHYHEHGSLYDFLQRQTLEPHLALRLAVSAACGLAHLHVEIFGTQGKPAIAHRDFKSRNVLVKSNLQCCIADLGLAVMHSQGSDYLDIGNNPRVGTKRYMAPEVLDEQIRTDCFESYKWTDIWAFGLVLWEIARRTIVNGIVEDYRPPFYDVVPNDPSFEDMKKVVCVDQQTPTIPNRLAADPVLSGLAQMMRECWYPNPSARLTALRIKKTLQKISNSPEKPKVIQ

[16] = biological target: Protein-tyrosine kinase 6 (Homo sapiens) (UniProt Q13882)
[17] = system: Tyrosine-protein kinase ABL1 (Homo sapiens), P00519 [Y253F]
[18] = biological target: Vascular endothelial growth factor receptor 1 (Homo sapiens, UniProt P17948)
Sequence of Vascular endothelial growth factor receptor 1 (P17948 whole entry): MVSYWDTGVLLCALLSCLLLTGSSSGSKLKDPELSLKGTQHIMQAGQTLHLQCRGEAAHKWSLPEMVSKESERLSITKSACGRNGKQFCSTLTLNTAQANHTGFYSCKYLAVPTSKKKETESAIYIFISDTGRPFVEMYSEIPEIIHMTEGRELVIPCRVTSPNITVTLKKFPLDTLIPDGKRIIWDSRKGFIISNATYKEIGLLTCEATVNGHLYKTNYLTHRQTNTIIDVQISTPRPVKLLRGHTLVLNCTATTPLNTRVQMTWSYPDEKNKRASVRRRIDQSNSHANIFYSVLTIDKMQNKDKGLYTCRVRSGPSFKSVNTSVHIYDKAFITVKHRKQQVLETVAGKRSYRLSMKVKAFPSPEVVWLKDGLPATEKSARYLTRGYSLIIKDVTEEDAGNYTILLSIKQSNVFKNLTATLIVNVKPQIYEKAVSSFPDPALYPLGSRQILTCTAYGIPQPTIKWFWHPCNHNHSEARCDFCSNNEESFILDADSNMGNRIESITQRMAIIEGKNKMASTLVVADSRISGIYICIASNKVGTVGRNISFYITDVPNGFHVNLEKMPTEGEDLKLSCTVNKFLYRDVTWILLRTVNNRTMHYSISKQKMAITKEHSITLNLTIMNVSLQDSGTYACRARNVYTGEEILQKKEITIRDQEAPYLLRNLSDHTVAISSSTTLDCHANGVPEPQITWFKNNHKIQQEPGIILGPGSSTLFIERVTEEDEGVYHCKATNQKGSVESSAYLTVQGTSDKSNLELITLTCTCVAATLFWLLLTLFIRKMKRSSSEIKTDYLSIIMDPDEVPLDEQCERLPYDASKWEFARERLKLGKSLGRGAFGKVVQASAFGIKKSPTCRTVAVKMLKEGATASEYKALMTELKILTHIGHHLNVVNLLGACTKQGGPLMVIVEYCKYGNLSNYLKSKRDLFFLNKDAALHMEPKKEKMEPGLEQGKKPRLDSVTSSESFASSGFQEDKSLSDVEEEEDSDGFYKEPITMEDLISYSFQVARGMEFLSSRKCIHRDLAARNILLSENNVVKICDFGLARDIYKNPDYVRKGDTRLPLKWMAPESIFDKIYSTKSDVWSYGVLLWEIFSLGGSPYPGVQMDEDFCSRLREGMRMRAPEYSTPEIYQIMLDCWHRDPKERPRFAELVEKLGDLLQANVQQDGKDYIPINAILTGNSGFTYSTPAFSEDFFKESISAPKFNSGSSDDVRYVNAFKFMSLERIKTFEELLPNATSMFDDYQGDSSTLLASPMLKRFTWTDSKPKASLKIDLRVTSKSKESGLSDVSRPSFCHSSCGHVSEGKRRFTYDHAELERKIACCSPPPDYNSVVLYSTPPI

[19] = biological target: Dual specificity mitogen-activated protein kinase kinase 6 (Homo sapiens) (UniProt P52564)
[20] = biological target: Ephrin type-A receptor 6 (Homo sapiens) (UniProt Q9UF33)
Sequence of Ephrin type-A receptor 6 (Homo sapiens) (Q9UF33 whole entry): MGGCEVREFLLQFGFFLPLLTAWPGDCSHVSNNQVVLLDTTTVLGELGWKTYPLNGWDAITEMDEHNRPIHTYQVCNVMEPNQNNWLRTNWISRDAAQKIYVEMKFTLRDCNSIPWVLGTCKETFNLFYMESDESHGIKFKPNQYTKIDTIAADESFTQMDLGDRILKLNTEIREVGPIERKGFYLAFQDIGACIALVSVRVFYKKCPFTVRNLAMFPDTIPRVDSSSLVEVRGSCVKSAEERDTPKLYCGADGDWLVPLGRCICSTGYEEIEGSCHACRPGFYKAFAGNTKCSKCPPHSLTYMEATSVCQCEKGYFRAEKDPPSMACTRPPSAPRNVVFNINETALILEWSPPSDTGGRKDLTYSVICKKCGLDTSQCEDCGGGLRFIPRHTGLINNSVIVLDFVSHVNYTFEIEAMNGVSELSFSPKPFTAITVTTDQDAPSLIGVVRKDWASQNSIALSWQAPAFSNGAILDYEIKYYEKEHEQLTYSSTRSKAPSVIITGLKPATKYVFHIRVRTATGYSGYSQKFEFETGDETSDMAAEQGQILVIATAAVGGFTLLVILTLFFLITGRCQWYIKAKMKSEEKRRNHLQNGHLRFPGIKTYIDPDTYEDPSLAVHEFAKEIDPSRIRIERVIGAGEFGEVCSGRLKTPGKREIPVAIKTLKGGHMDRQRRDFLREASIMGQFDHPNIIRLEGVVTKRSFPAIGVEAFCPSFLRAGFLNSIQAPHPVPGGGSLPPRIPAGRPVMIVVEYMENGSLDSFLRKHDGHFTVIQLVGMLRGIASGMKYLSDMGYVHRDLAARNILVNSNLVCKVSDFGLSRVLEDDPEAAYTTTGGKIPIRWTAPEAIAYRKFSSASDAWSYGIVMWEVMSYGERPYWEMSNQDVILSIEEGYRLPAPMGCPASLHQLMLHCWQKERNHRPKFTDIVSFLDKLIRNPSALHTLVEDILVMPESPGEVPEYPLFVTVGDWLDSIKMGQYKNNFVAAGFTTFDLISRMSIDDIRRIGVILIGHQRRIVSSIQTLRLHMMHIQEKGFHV

[21] = biological target: Serine/threonine-protein kinase 38-like (Homo sapiens) (UniProt Q9Y2H1)
[22] = system: Epidermal growth factor receptor (Homo sapiens), P00533 [UNDEFINED MUTATION]
[23] = biological target: Calcium/calmodulin-dependent protein kinase type 1B (Homo sapiens) (UniProt Q6P2M8)
Sequence of Calcium/calmodulin-dependent protein kinase type 1B (Homo sapiens) (Q6P2M8 whole entry): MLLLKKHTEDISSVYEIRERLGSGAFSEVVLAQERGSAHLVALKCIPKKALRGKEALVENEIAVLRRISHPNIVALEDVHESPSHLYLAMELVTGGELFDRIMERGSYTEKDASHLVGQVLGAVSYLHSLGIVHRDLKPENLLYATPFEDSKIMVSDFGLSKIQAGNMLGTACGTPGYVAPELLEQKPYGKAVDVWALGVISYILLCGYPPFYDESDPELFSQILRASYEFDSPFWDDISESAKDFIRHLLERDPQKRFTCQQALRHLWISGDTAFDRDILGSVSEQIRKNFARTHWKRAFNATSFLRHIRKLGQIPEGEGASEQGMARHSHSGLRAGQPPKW

[24] = system: Tyrosine-protein kinase ABL1 (Homo sapiens), P00519 [H396P]
[25] = biological target: BDNF/NT-3 growth factors receptor (Homo sapiens) (UniProt Q16620)
[26] = biological target: Mitogen-activated protein kinase kinase kinase 15 (Homo sapiens) (UniProt Q6ZN16)
[27] = system: Tyrosine-protein kinase ABL1 (Homo sapiens), P00519 [F317L]
[28] = biological target: Ephrin type-B receptor 6 (Homo sapiens) (UniProt O15197)
[29] = biological target: Serine/threonine-protein kinase SIK2 (Homo sapiens) (UniProt Q9H0K1)
[30] = biological target: Delta-type opioid receptor (Homo sapiens) (UniProt P41143); settings: Compound concentration 10.0 uM
Sequence of Delta-type opioid receptor (Homo sapiens) (P41143 whole entry): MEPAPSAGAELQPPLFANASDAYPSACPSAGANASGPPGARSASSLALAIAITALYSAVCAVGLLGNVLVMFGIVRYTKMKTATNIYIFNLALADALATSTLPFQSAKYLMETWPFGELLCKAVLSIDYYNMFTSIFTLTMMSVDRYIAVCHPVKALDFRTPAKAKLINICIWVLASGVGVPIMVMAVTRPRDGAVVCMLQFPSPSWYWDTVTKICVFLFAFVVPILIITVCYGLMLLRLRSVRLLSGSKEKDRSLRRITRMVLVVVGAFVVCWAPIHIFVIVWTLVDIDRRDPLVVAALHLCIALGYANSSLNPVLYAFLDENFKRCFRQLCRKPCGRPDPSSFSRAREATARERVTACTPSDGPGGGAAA

[31] = Compound concentration 100.0 nM
[32] = Compound concentration 1000.0 nM

**Q.** What does the source list for `CNC(=O)c1ccc(Nc2ncc(C(F)(F)F)c(NCc3nccnc3N(C)S(C)(=O)=O)n2)cc1` [DEFACTINIB]?
**A.** residual activity [1, 31]: 4.8%; residual activity [2, 31]: 75%; residual activity [3, 31]: 83%; residual activity [4, 31]: 100%; residual activity [5, 31]: 92%; residual activity [6, 31]: 93%; residual activity [7, 31]: 8.2%; residual activity [8, 31]: 37%; residual activity [9, 31]: 100%; residual activity [10, 31]: 27%; residual activity [11, 31]: 100%; residual activity [12, 31]: 100%; residual activity [13, 31]: 97%; residual activity [14, 31]: 89%; residual activity [15, 31]: 100%; residual activity [16, 31]: 100%; residual activity [17, 31]: 100%; residual activity [18, 31]: 63%; residual activity [19, 31]: 77%; residual activity [20, 31]: 85%; residual activity [21, 31]: 73%; residual activity [22, 31]: 91%; residual activity [23, 31]: 100%; residual activity [24, 31]: 100%; residual activity [25, 31]: 21%; residual activity [26, 31]: 95%; residual activity [27, 31]: 100%; residual activity [28, 31]: 100%; residual activity [29, 31]: 100%; inhibition [30]: -0.28%

**Q.** What does the source list for `CN(c1ccnc(CNc2nc(Nc3ccc4c(c3)CC(=O)N4)ncc2C(F)(F)F)n1)S(C)(=O)=O` [PF-00911705]?
**A.** residual activity [1, 32]: 3.8%; residual activity [2, 32]: 71%; residual activity [3, 32]: 45%; residual activity [4, 32]: 49%; residual activity [5, 32]: 77%; residual activity [6, 32]: 79%; residual activity [7, 32]: 1.9%; residual activity [8, 32]: 22%; residual activity [9, 32]: 91%; residual activity [10, 32]: 27%; residual activity [11, 32]: 100%; residual activity [12, 32]: 100%; residual activity [13, 32]: 89%; residual activity [14, 32]: 75%; residual activity [15, 32]: 100%; residual activity [16, 32]: 100%; residual activity [17, 32]: 45%; residual activity [18, 32]: 69%; residual activity [19, 32]: 83%; residual activity [20, 32]: 85%; residual activity [21, 32]: 75%; residual activity [22, 32]: 44%; residual activity [23, 32]: 66%; residual activity [24, 32]: 46%; residual activity [25, 32]: 21%; residual activity [26, 32]: 92%; residual activity [27, 32]: 71%; residual activity [28, 32]: 54%; residual activity [29, 32]: 41%; inhibition [30]: -6.88%
